Among the test systems are A498 renal; M14 melanoma; KM12 colon; MDA-MB-435; TK-10 renal; NCI-H460 lung; OVCAR-4 ovarian; MOLT-4 leukemia; UO-31 renal; U251 CNS.
Holding throughout (assay): growth of human tumour cells (NCI), 48 h

SMILES strings stand for the structures.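 The compound was tested at five concentrations on cells cultured in 96-well plates, with a 48-hour exposure period. The concentration for 50% growth inhibition is given as GI50. TGI: total growth inhibition.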

Regarding `CCCCCCCC(=O)OCC(=O)[C@]1(O)Cc2c(O)c3c(c(O)c2[C@@H](OC2CC(N)C(O)C(C)O2)C1)C(=O)c1c(OC)cccc1C3=O` (some centres not stated), the GI50 in the experiment on A498 renal is 215 nM; with M14 melanoma, 86.6 nM; with KM12 colon, 188 nM; with MDA-MB-435 it was 325 nM; in the experiment on TK-10 renal, 265 nM. Besides, the TGI in the experiment with A498 renal worked out at 0.951 µM; in the experiment on M14 melanoma, 0.634 µM; with KM12 colon, 0.758 µM; with MDA-MB-435 it was 1880 nM; in the experiment on TK-10 renal, 2 µM; with NCI-H460 lung, 0.196 µM.
For the molecule `Cc1cnc(Nc2ccc(N3CCN(C)CC3)cc2)nc1Nc1ccc(Cl)c(NS(=O)(=O)C(C)(C)C)c1`, the GI50 in the experiment on OVCAR-4 ovarian was 180 nM; in the experiment with MOLT-4 leukemia, 419 nM; in the experiment on A498 renal, 178 nM; with UO-31 renal it was 87.7 nM; in the experiment on M14 melanoma, 112 nM; with KM12 colon it was 94.3 nM. Besides, the GI50 in the experiment with MDA-MB-435 was 170 nM; in the experiment with U251 CNS it was 840 nM; in the experiment with TK-10 renal, 63.8 nM; in the experiment on NCI-H460 lung it was 267 nM. The TGI in the experiment on OVCAR-4 ovarian was 23.7 µM; in the experiment with MOLT-4 leukemia it was 11.6 µM; in the experiment with A498 renal it was 0.881 µM; in the experiment on UO-31 renal, 1.29 µM; in the experiment with M14 melanoma, 1.78 µM; in the experiment with KM12 colon it was 5.39 µM. The TGI in the experiment with MDA-MB-435 came out at 10700 nM; in the experiment on U251 CNS it was 11.7 µM; with TK-10 renal, 0.936 µM; in the experiment with NCI-H460 lung, 10.3 µM.
As for `COc1cc(/C=C/c2cc(/C=C/c3ccc(O)c(OC)c3)n(C(=O)Nc3ccc(Cl)cc3)n2)ccc1O`, the GI50 with OVCAR-4 ovarian was 803 nM; with MOLT-4 leukemia it was 374 nM; with A498 renal, 1840 nM; in the experiment with UO-31 renal, 375 nM; with M14 melanoma, 370 nM; with KM12 colon, 354 nM. The GI50 with MDA-MB-435 was 149 nM; in the experiment on U251 CNS, 525 nM; in the experiment with TK-10 renal, 966 nM; in the experiment on NCI-H460 lung, 327 nM. Also, the TGI was found to be 5.73 µM in the experiment on OVCAR-4 ovarian; 3.47 µM with MOLT-4 leukemia; 5.13 µM in the experiment with A498 renal; 3.16 µM in the experiment on UO-31 renal; 1.4 µM with M14 melanoma; 1.84 µM with KM12 colon. Moreover, the TGI is 392 nM in the experiment on MDA-MB-435, 5.33 µM in the experiment on U251 CNS, 6.18 µM in the experiment with TK-10 renal and 1.85 µM with NCI-H460 lung.
Turning to `CN(C)c1ccc(C(c2ccc(Cl)cc2)c2ccc(N(C)C)cc2)cc1`, the TGI with MOLT-4 leukemia was more than 100 µM; in the experiment on A498 renal it was more than 100 µM; in the experiment with UO-31 renal it was more than 100 µM; with M14 melanoma, more than 100 µM; in the experiment with KM12 colon, more than 100 µM; with MDA-MB-435, more than 100000 nM. Further, the TGI in the experiment with U251 CNS, in the experiment on TK-10 renal and in the experiment on NCI-H460 lung was more than 100 µM throughout.
Consider `COc1cccc(C2C3=C(COC3=O)N(CCO)c3cc4c(cc32)OCO4)c1` (configuration not stated), for which the GI50 was 2320 nM in the experiment on OVCAR-4 ovarian; 315 nM in the experiment on MOLT-4 leukemia; 263 nM with A498 renal; 297 nM in the experiment on UO-31 renal; 250 nM with M14 melanoma; 192 nM in the experiment on KM12 colon. In addition, the GI50 was 101 nM with MDA-MB-435, 269 nM in the experiment on U251 CNS, 725 nM in the experiment with TK-10 renal and 189 nM with NCI-H460 lung. Moreover, the TGI with OVCAR-4 ovarian is more than 50 µM; in the experiment with MOLT-4 leukemia, more than 16.7 µM; with A498 renal, 5.1 µM; with UO-31 renal it was more than 50 µM; in the experiment with M14 melanoma, more than 11 µM; with MDA-MB-435, 356 nM. The same molecule came in with a TGI in the experiment with U251 CNS of more than 50 µM.
As to `C[C@]12CCNC(=O)C=C1CC[C@@H]1C2CC[C@@]2(C)C1CC[C@@H]2OC(=O)COc1ccc(N(CCCl)CCCl)cc1` (some centres not stated), the TGI is 20.5 µM with OVCAR-4 ovarian; more than 22.2 µM with MOLT-4 leukemia; 36.1 µM in the experiment on A498 renal; 18.9 µM with UO-31 renal; 20.3 µM with M14 melanoma; 24.4 µM in the experiment on KM12 colon. In addition, the TGI in the experiment on MDA-MB-435 is 74500 nM; with U251 CNS, 11.1 µM; with TK-10 renal, 35.6 µM; with NCI-H460 lung it was 7.26 µM.
For the molecule `CC1=C(C)C2(O)C(=C(C)C1=O)/C(=C(/O)c1ccccc1)c1nc3ccccc3n12` (configuration not stated), the GI50 in the experiment on OVCAR-4 ovarian is 13500 nM; in the experiment on MOLT-4 leukemia, 24600 nM; in the experiment on A498 renal, 23700 nM; with UO-31 renal, 25600 nM; in the experiment on M14 melanoma, 23500 nM; in the experiment with KM12 colon it was 17600 nM. Also, the GI50 in the experiment with MDA-MB-435 is 17300 nM; with U251 CNS, 22100 nM; with TK-10 renal, 20100 nM; in the experiment on NCI-H460 lung, 18500 nM. The TGI with OVCAR-4 ovarian is 27.1 µM; in the experiment with MOLT-4 leukemia it was 72.3 µM; in the experiment on A498 renal it was 45.4 µM; with UO-31 renal it was more than 100 µM; in the experiment with M14 melanoma, 52.7 µM; with KM12 colon, 37.6 µM. Moreover, the TGI turned out to be 35100 nM with MDA-MB-435, 58.2 µM in the experiment with U251 CNS, 58.9 µM with TK-10 renal and 50.8 µM in the experiment with NCI-H460 lung.
For the molecule `c1ccc([As]=[As]c2ccccc2)cc1` (configuration not stated), the GI50 in the experiment on OVCAR-4 ovarian was 1080 nM; in the experiment on MOLT-4 leukemia, 1010 nM; with A498 renal, 668 nM; in the experiment with UO-31 renal, 973 nM; in the experiment on M14 melanoma, 1550 nM; with KM12 colon, 1870 nM. In addition, the GI50 in the experiment on MDA-MB-435 is 1270 nM; in the experiment on U251 CNS, 752 nM; in the experiment with TK-10 renal, 1610 nM; in the experiment with NCI-H460 lung, 2010 nM. Further, the TGI stood at 2.43 µM in the experiment with OVCAR-4 ovarian; 4.17 µM in the experiment on MOLT-4 leukemia; 2.34 µM with A498 renal; 2.39 µM with UO-31 renal; 4.17 µM with M14 melanoma; 3.69 µM with KM12 colon. Also, the TGI with MDA-MB-435 was determined as 2720 nM; with U251 CNS, 2.05 µM; in the experiment with TK-10 renal, 3.38 µM; in the experiment with NCI-H460 lung, 4.15 µM.

Source of the values: PubChem BioAssay (NCI).
